# Experimental data from paper PMC10009750, “Development of Selective ADAMTS-5 Peptide Substrates to Monitor Proteinase Activity” (Journal of Medicinal Chemistry, 2023).
# Values joined by “and” are separate entries in the source; they are usually repeats but may differ in a detail not shown here. Equal values may be shown once. Non-standard residues stand in square brackets, D forms with d. No end group written: not given here. Tyr(3-NO2) = N[C@@H](Cc1ccc(O)c([N+](=O)[O-])c1)C(=O)O; 2Abz = Nc1ccccc1C(=O)O
# Assays:
# Type in all cases: biochemical
# [1] = system: MMP-2ΔC (catalytic domain of MMP-2); experiment: Selectivity studies: cleavage of FRET peptide substrates by MMP-2ΔC; details: substrate 20 μM; for preference (selectivity) for TS5-5 over MMP-2ΔC: ratio of cleavage rates
# Procedure: (§1) All proteinase assays were performed at 37 °C in a SpectraMax M5 spectrophotometer (Molecular Devices, San Jose, USA) using a 96-well black microplate (Greiner bio-one, Stonehouse, UK) unless otherwise stated. […] N-TIMP-3 was purified as described previously[30] and CT-1746 was a gift from Dr. Yoshifumi Itoh (Kennedy Institute of Rheumatology, University of Oxford). All analyses were carried out using Prism 9 software (GraphPad, La Jolla, CA, USA).
# (§2) Selectivity studies are described for Abz-TESE↓SRGAIY-Dpa-KK-NH2, the library parent peptide 3, and hit peptides 18–26. A solution of Abz-TESE↓SRGAIY-Dpa-KK-NH2 (22.22 μM) in freshly prepared TNC buffer with 0.005% (v/v) Brij-35 (90 μL) was added to a 96-well clear bottom microplate (Greiner bio-one, Stonehouse, UK) in triplicate. A substrate-only background control was also added in triplicate (90 μL). The resultant solutions were incubated at 37 °C (30 min). An ADAMTS or MMP proteinase was added to substrate wells (10 μL) to give a final proteinase concentration of either 50–90 nM (TS4-4), 25–200 nM (TS5-5), 5–10 nM (MMP-2ΔC), 30 nM (MMP-9ΔC), 92 nM (MMP-1), or 3 μM (MMP-3). TNC buffer with 0.005% (v/v) Brij-35 was added to substrate-only control wells (10 μL). The relative fluorescence intensity was measured at 37 °C for 1 h with readings every 20 s. Activity was read from underneath the microplate, which was covered with a low evaporation lid. […] For each ADAMTS and MMP proteinase, the assay was performed 2–4 times. […] Final rates were expressed as a percentage of substrate cleavage by TS5-5 (mean ± SEM) or in μM s^–1 μM^–1 of proteinase.
# [2] = system: MMP-9ΔC (catalytic domain of MMP-9); experiment: Selectivity studies: cleavage of FRET peptide substrates by MMP-9ΔC; details: ratio of cleavage rates, substrate 20 μM
# Procedure: as §1, §2
# TS5-5 (ADAMTS-5) = target: T1, TS5-5 (ADAMTS-5) (Homo sapiens, UniProt Q9UNA0); experiment: Determination of kinetic parameters (kcat and Km) for substrate cleavage by TS5-5, inner-filter corrected
# T1 construct: ADAMTS-5 (i.e. TS5-5, residues 264–555); FLAG; made in house; host or cells: HEK293 cells (previously transfected stocks)
# T1 sequence (Q9UNA0 264-555): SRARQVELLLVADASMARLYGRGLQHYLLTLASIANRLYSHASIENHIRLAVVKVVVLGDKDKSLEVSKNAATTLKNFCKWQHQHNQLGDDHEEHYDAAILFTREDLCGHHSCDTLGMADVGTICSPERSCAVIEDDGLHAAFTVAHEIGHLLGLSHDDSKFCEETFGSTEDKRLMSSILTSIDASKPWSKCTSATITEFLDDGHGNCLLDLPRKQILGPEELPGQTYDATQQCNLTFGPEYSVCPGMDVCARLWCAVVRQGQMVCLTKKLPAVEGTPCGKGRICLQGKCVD
# Procedure: A solution of Abz-TESE↓SRGAIY-Dpa-KK-NH2/3/26 (5 mM) or 19/23 (1 mM) in DMSO underwent a 2-fold serial dilution with freshly prepared TNC buffer containing 0.005% (v/v) Brij-35. This gave initial concentrations in the following range: 222.22 to 0.87 μM (Abz-TESE↓SRGAIY-Dpa-KK-NH2/3/23/26) and 177.78 to 1.39 μM (19). Eight substrate concentrations (180 μL) within these ranges (including outer numbers) were added to a 96-well black microplate in triplicate and incubated at 37 °C (20 min). TNC buffer with 0.005% (v/v) Brij-35 was added to substrate-only control wells in a single replicate (180 μL). TS5-5 proteinase was thawed from −80 or −20 °C, made up in TNC buffer with 0.005% (v/v) Brij-35 (300 nM) and added to substrate wells (20 μL). TNC buffer was added to substrate-only control wells (20 μL). Fluorescence intensity was measured at 37 °C for 1 h with readings every 20 s. The rate of substrate cleavage was determined at each substrate concentration and expressed as the mean ± SEM in μM s^–1. The subsequent data was fitted to the Michaelis–Menten eq 2: [drawing 2] 2 where v is the rate of the reaction, Vmax is the maximal rate of the reaction, Km is the Michaelis constant, and [S] is the substrate concentration. This equation enabled the Km value to be determined. The catalytic rate constant kcat was determined from eq 3: [drawing 3] 3 where [E] is the concentration of proteinase, and kcat and Vmax are as defined previously. These initial Km and kcat parameters were determined from n = 3–4 independent experiments with final values for these parameters reported after a correction for the inner-filter effect.
# This was performed based on the protocol described in Liu et al.([40]) to correct for quenching of the released Abz fluorophore by uncleaved substrate. Two sets of initial substrate concentrations were prepared as described in the previous section. Both sets of substrate concentrations (180 μL) were added to a 96-well black microplate in triplicate. Two buffer-alone controls with TNC buffer containing 0.005% (v/v) Brij-35 (180 μL) were also added in triplicate. All solutions were incubated at 37 °C (20 min). Abz fluorophore (1 M) in DMSO was serially diluted to 1 mM in DMSO, before further dilution to 100 μM using TNC buffer containing 0.005% (v/v) Brij-35. TNC buffer containing 0.005% (v/v) Brij-35 (20 μL) was added to the first set of substrate concentrations as well as to the first buffer-alone control. Abz fluorophore (20 μL, 100 μM) was added to the second set of substrate concentrations as well as the second buffer-alone control. The end-point fluorescence intensity was measured at 37 °C using λex = 300 nm and λem = 430 nm. At each substrate concentration, […] to give the actual fluorescence of the Abz fluorophore (RFUAbz). These values were divided by RFUAbz at a substrate concentration of 0 μM to give the correction factor for each concentration. The rates for each substrate concentration described in the previous section were divided by their respective correction factors (Tables S6–S10) to deliver the inner-filter corrected kcat and Km values.
# [3] = TS5-5, TNC buffer with 0.005% (v/v) Brij-35, 37 °C, corrected for inner filter effect, mean ± SEM from 3–4 independent experiments in triplicate
# [4] = TS5-5, TNC buffer with 0.005% (v/v) Brij-35, 37 °C, corrected for inner filter effect, mean ± SEM from 3–4 independent experiments in triplicate, listed as current substrate
# [5] = supplementary CSV copy of Table 3, TS5-5, 37 °C
Substance,preference (selectivity) for TS5-5 over MMP-2ΔC [1] [fold],"cleavage by MMP-2ΔC as a fraction (percentage) of TS5-5 cleavage of the current substrate ([1]; TNC buffer with 0.005% (v/v) Brij-35, 37 °C, mean of 2–8 independent experiments in triplicate) [%]",preference (selectivity) for TS5-5 over MMP-9ΔC [2] [fold],Km (TS5-5 (ADAMTS-5); [3]) [µM],kcat (TS5-5 (ADAMTS-5); [3]),kcat/Km (TS5-5 (ADAMTS-5); [3]),kcat (TS5-5 (ADAMTS-5); [4]) [s⁻¹],kcat/Km (TS5-5 (ADAMTS-5); [4]) [M⁻¹ s⁻¹],kcat (TS5-5 (ADAMTS-5); [5]) [s⁻¹],decrease in Km compared to the current substrate (TS5-5 (ADAMTS-5); TS5-5) [fold],higher catalytic efficiency (kcat/Km) compared to the current substrate (TS5-5 (ADAMTS-5); TS5-5) [fold],lower catalytic rate constant (kcat) compared to the current substrate (TS5-5 (ADAMTS-5); TS5-5) [fold]
"Abz-TESE↓SRGAIY-Dpa-KK-NH2 [current, ortho-aminobenzoyl(Abz)-TESE↓SRGAIY-N-3-[2,4-dinitrophenyl]-L-2,3-diaminopropionyl(Dpa)-KK-NH2, reference compound]",~0.7,138,~213,125 ± 5,3.61 ± 0.31 s⁻¹,29100 ± 3090 M⁻¹ s⁻¹,3.61,29100,3.61 ± 0.31,–,–,–
KY(NO2)SENESRGK(Abz)IYYKKG (K[Tyr(3-NO2)]SENESRGK(2Abz)IYYKKG) [Compound 26],~8,–,~548,76.9 ± 6.4,3.32 s⁻¹ and 3.32 ± 0.31 s⁻¹,44400 M⁻¹ s⁻¹ and 44400 ± 6690 M⁻¹ s⁻¹,–,–,3.32 ± 0.31,~2,~1.5,–
KY(NO2)TESESRGK(Abz)IYYKKG (K[Tyr(3-NO2)]TESESRGK(Abz)IYYKKG) [Compound 3],~10,–,~2561,29.5 ± 1.7,1.87 s⁻¹ and 1.87 ± 0.15 s⁻¹,63200 M⁻¹ s⁻¹ and 63200 ± 1840 M⁻¹ s⁻¹,–,–,1.87 ± 0.15,~4,~2,~2
